Results: the NIST ThermoML archive (doi:10.1016/j.jct.2017.08.028)
Numbers after ± are expanded uncertainties.

Details: Crystal; for molar entropy: 100 kPa, Small (less than 1 g) adiabatic calorimetry; for mass density: 101.33 kPa, X-ray diffraction

With O[C@H]1[C@H](O)[C@@H](O)[C@H](O)[C@@H](O)[C@H]1O [cis-1,2,3,5-trans-4,6-cyclohexanehexol] as the compound, how does the molar entropy (5 K) read?
Its molar entropy is 0.0237 ± 0.024 J/K/mol.

What about the molar entropy (6 K) of the same compound?
The molar entropy was 0.0492 ± 0.024 J/K/mol.

And the molar entropy (7 K)?
The molar entropy was 0.091 ± 0.025 J/K/mol.

And the molar entropy (8 K)?
Its molar entropy is 0.1546 ± 0.026 J/K/mol.

What about the molar entropy (9 K) of the same compound?
Its molar entropy is 0.2451 ± 0.029 J/K/mol.

What about the molar entropy (10 K) of the same compound?
The molar entropy was 0.3742 ± 0.036 J/K/mol.

And the molar entropy (15 K)?
Its molar entropy is 1.491 ± 0.1 J/K/mol.

What about the molar entropy (20 K) of the same compound?
The molar entropy was 3.261 ± 0.21 J/K/mol.

And the molar entropy (25 K)?
Its molar entropy is 5.458 ± 0.34 J/K/mol.

What about the molar entropy (30 K) of the same compound?
The molar entropy was 7.964 ± 0.5 J/K/mol.

And the molar entropy (35 K)?
The molar entropy was 10.69 ± 0.66 J/K/mol.

And the molar entropy (40 K)?
The molar entropy was 13.58 ± 0.83 J/K/mol.

What about the molar entropy (45 K) of the same compound?
The molar entropy was 16.57 ± 0.32 J/K/mol.

And the molar entropy (50 K)?
The molar entropy was 19.63 ± 0.36 J/K/mol.

What about the molar entropy (60 K) of the same compound?
Its molar entropy is 25.97 ± 0.46 J/K/mol.

What about the molar entropy (70 K) of the same compound?
The molar entropy was 32.56 ± 0.56 J/K/mol.

And the molar entropy (80 K)?
Its molar entropy is 39.37 ± 0.67 J/K/mol.

And the molar entropy (90 K)?
The molar entropy was 46.36 ± 0.49 J/K/mol.

What about the molar entropy (100 K) of the same compound?
Its molar entropy is 53.48 ± 0.54 J/K/mol.

And the molar entropy (110 K)?
Its molar entropy is 60.72 ± 0.59 J/K/mol.

What about the molar entropy (120 K) of the same compound?
The molar entropy was 68.03 ± 0.65 J/K/mol.

What about the molar entropy (130 K) of the same compound?
The molar entropy was 75.4 ± 0.7 J/K/mol.

And the molar entropy (140 K)?
Its molar entropy is 82.82 ± 0.75 J/K/mol.

What about the molar entropy (150 K) of the same compound?
The molar entropy was 90.26 ± 0.8 J/K/mol.

And the mass density (150 K)?
The mass density was 1577 ± 6 kg/m3.

And the molar entropy (160 K)?
The molar entropy was 97.71 ± 0.86 J/K/mol.

And the molar entropy (170 K)?
The molar entropy was 105.2 ± 0.9 J/K/mol.

And the mass density (175 K)?
Its mass density is 1574 ± 6 kg/m3.

And the molar entropy (180 K)?
The molar entropy was 112.6 ± 1 J/K/mol.

And the molar entropy (190 K)?
Its molar entropy is 120.1 ± 1 J/K/mol.

What about the molar entropy (200 K) of the same compound?
Its molar entropy is 127.6 ± 1.1 J/K/mol.

And the mass density (200 K)?
Its mass density is 1574 ± 6 kg/m3.

And the molar entropy (210 K)?
The molar entropy was 135 ± 1.1 J/K/mol.

And the molar entropy (220 K)?
Its molar entropy is 142.4 ± 1.2 J/K/mol.

And the mass density (225 K)?
The mass density was 1575 ± 6 kg/m3.

And the molar entropy (230 K)?
The molar entropy was 149.9 ± 1.2 J/K/mol.

What about the molar entropy (240 K) of the same compound?
Its molar entropy is 157.3 ± 1.3 J/K/mol.

What about the molar entropy (250 K) of the same compound?
Its molar entropy is 164.8 ± 1.3 J/K/mol.

And the mass density (250 K)?
The mass density was 1572 ± 6 kg/m3.

And the molar entropy (260 K)?
The molar entropy was 172.2 ± 1.4 J/K/mol.

And the molar entropy (270 K)?
The molar entropy was 179.6 ± 1.5 J/K/mol.

And the molar entropy (273.15 K)?
Its molar entropy is 182 ± 1.5 J/K/mol.

And the mass density (275 K)?
The mass density was 1570 ± 6 kg/m3.

And the molar entropy (280 K)?
The molar entropy was 187.1 ± 1.5 J/K/mol.

What about the molar entropy (290 K) of the same compound?
Its molar entropy is 194.5 ± 1.6 J/K/mol.

And the molar entropy (298.15 K)?
The molar entropy was 200.6 ± 1.6 J/K/mol.

And the molar entropy (300 K)?
Its molar entropy is 202 ± 1.6 J/K/mol.

What about the mass density (300 K) of the same compound?
The mass density was 1569 ± 6 kg/m3.

And the molar entropy (310 K)?
The molar entropy was 209.4 ± 1.7 J/K/mol.

What about the molar entropy (320 K) of the same compound?
Its molar entropy is 216.9 ± 1.7 J/K/mol.

And the mass density (325 K)?
The mass density was 1569 ± 6 kg/m3.

What about the molar entropy (330 K) of the same compound?
Its molar entropy is 224.3 ± 1.8 J/K/mol.

What about the molar entropy (340 K) of the same compound?
Its molar entropy is 231.8 ± 1.8 J/K/mol.

What about the mass density (350 K) of the same compound?
Its mass density is 1566 ± 6 kg/m3.

And the mass density (375 K)?
Its mass density is 1561 ± 6 kg/m3.

And the mass density (400 K)?
Its mass density is 1559 ± 6 kg/m3.

And the mass density (425 K)?
The mass density was 1555 ± 6 kg/m3.

And the mass density (450 K)?
The mass density was 1553 ± 6 kg/m3.
